“And” between values parts separate entries of the source, which are not always exact repeats. Identical values can stand only once. Inconclusive results and toxic doses are left out.
System: P388 leukemia ip, CD2F1 mice, survival T/C
Test: NCI In Vivo Anticancer Drug Screen. Data for tumor model P388 Leukemia (intraperitoneal) in CD2F1 (CDF1) mice
Conditions: endpoint: median survival time, higher = longer survival
Procedure, shortened: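 Mice carrying the transplanted tumor received test compound or vehicle. Survival was recorded in each group, and the value is the treated-group measurement divided by that of the vehicle-treated control group.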

[1] = dose: 100.0 mg/kg/injection, schedule: Q01DX001 (ip), vehicle: Klucel (hydroxypropylcellulose) (HPC)
[2] = dose: 200.0 mg/kg/injection, schedule: Q01DX001 (ip), vehicle: Klucel (hydroxypropylcellulose) (HPC)
[3] = dose: 50.0 mg/kg/injection, schedule: Q01DX009 (ip), vehicle: saline with Tween-80
[4] = dose: 100.0 mg/kg/injection, schedule: Q01DX009 (ip), vehicle: saline with Tween-80
[5] = dose: 200.0 mg/kg/injection, schedule: Q01DX009 (ip), vehicle: saline with Tween-80
[6] = dose: 100.0 mg/kg/injection, schedule: Q04DX003 (ip), vehicle: saline with Tween-80
[7] = dose: 200.0 mg/kg/injection, schedule: Q04DX003 (ip), vehicle: saline with Tween-80
[8] = dose: 400.0 mg/kg/injection, schedule: Q01DX009 (ip), vehicle: saline with Tween-80
[9] = dose: 50.0 mg/kg/injection, schedule: Q01DX005 (ip), vehicle: Klucel (hydroxypropylcellulose) (HPC)
[10] = dose: 100.0 mg/kg/injection, schedule: Q01DX005 (ip), vehicle: Klucel (hydroxypropylcellulose) (HPC)
[11] = dose: 200.0 mg/kg/injection, schedule: Q01DX005 (ip), vehicle: Klucel (hydroxypropylcellulose) (HPC)
[12] = dose: 60.0 mg/kg/injection, schedule: Q01DX005 (ip), vehicle: saline with Tween-80
[13] = dose: 120.0 mg/kg/injection, schedule: Q01DX005 (ip), vehicle: saline with Tween-80
[14] = dose: 240.0 mg/kg/injection, schedule: Q01DX005 (ip), vehicle: saline with Tween-80
[15] = dose: 100.0 mg/kg/injection, schedule: Q04DX003 (ip), vehicle: saline
[16] = dose: 200.0 mg/kg/injection, schedule: Q04DX003 (ip), vehicle: saline
[17] = dose: 400.0 mg/kg/injection, schedule: Q04DX003 (ip), vehicle: saline

In the case of `CN(CCOc1c(I)cc(I)cc1I)CC(O)C(O)C(O)C(O)CO` (stereo not drawn), the T/C (dose: 50.0 mg/kg/injection, schedule: Q01DX001 (ip), vehicle: Klucel (hydroxypropylcellulose) (HPC)) is reported as 110 % of control, the T/C (dose: 50.0 mg/kg/injection, schedule: Q01DX009 (ip), vehicle: Klucel (hydroxypropylcellulose) (HPC)) is reported as 94 % of control and the T/C [1] is reported as 108 % of control. The T/C [2] was 109 % of control.
For `CCCCc1ccc(Nc2ccc(Nc3ccc(CCCC)cc3S(=O)(=O)O)c3c2C(=O)c2ccccc2C3=O)c(S(=O)(=O)O)c1`, the T/C [3] was 94 % of control, the T/C [4] was 90 % of control and the T/C [5] was 94 % of control.
For `CC1(C)COSOC1`, the T/C [1] was 98 % of control, the T/C [2] was 104 % of control and the T/C (dose: 400.0 mg/kg/injection, schedule: Q01DX001 (ip), vehicle: Klucel (hydroxypropylcellulose) (HPC)) was 104 % of control.
For `O=C(c1ccccc1)C1(Cl)CCCCC1`, the T/C (dose: 25.0 mg/kg/injection, schedule: Q01DX009 (ip), vehicle: saline + alcohol) was 99 % of control, the T/C (dose: 50.0 mg/kg/injection, schedule: Q01DX009 (ip), vehicle: saline + Tween-80 + alcohol) was 108 % of control and the T/C (dose: 50.0 mg/kg/injection, schedule: Q01DX009 (ip), vehicle: saline + alcohol) was 91 % of control. For the same compound, the T/C (dose: 100.0 mg/kg/injection, schedule: Q01DX009 (ip), vehicle: saline + Tween-80 + alcohol) was 104 % of control, the T/C (dose: 100.0 mg/kg/injection, schedule: Q01DX009 (ip), vehicle: saline + alcohol) was 100 % of control and the T/C (dose: 200.0 mg/kg/injection, schedule: Q01DX009 (ip), vehicle: saline + Tween-80 + alcohol) was 99 % of control. For the same compound, the T/C (dose: 200.0 mg/kg/injection, schedule: Q01DX009 (ip), vehicle: saline + alcohol) was 92 % of control and the T/C (dose: 400.0 mg/kg/injection, schedule: Q01DX009 (ip), vehicle: saline + Tween-80 + alcohol) was 112 % of control.
In the case of `COc1ccc(/C=N/NC(N)=S)cc1`, the T/C [4] is reported as 109 % of control, the T/C [6] is reported as 100 % of control and the T/C [5] is reported as 100 % of control. For the same compound, the T/C [7] was 113 % of control, the T/C [8] was 109 % of control and the T/C (dose: 400.0 mg/kg/injection, schedule: Q04DX003 (ip), vehicle: saline with Tween-80) was 109 % of control.
For `CCCCCCC(=O)/C=C/c1ccc(C)cc1`, the T/C [9] was 100 % of control, the T/C [10] was 100 % of control and the T/C [11] was 94 % of control.
With `C=CCOC(N)=O` the T/C [4] was 100 % of control, the T/C [5] was 101 % of control and the T/C [8] was 101 % of control.
With `Cc1c2c(c(C)c3c1[nH]c1ccccc13)C(C#N)N(C(=O)c1ccccc1)C=C2` (stereo not drawn) the T/C (dose: 6.25 mg/kg/injection, schedule: Q04DX003 (ip), vehicle: distilled water + Tween-80) was 100 % of control, the T/C (dose: 12.5 mg/kg/injection, schedule: Q04DX003 (ip), vehicle: distilled water + Tween-80) was 102 % of control and the T/C (dose: 25.0 mg/kg/injection, schedule: Q04DX003 (ip), vehicle: distilled water + Tween-80) was 90 % of control. For the same compound, the T/C (dose: 50.0 mg/kg/injection, schedule: Q04DX003 (ip), vehicle: distilled water + Tween-80) was 88 % of control, the T/C (dose: 100.0 mg/kg/injection, schedule: Q04DX003 (ip), vehicle: distilled water + Tween-80) was 90 % of control and the T/C (dose: 200.0 mg/kg/injection, schedule: Q04DX003 (ip), vehicle: distilled water + Tween-80) was 94 % of control.
In the case of `CC1CN2CCOC2(C)O1` (stereo not drawn), the T/C (dose: 60.0 mg/kg/injection, schedule: Q01DX005 (ip), vehicle: saline) is reported as 106 % of control, the T/C (dose: 120.0 mg/kg/injection, schedule: Q01DX005 (ip), vehicle: saline) is reported as 102 % of control and the T/C (dose: 240.0 mg/kg/injection, schedule: Q01DX005 (ip), vehicle: saline) is reported as 101 % of control.
For `CCCCCOCc1cc(C)no1`, the T/C [12] was 104 % of control, the T/C [13] was 109 % of control and the T/C [14] was 104 % of control.
For `COc1ccc2c(c1)c(COC(C)=O)c(C)c[n+]2[O-]`, the T/C [9] was 100 % of control, the T/C [10] was 104 % of control and the T/C [11] was 88 % of control.
`CCSC(=O)N1c2ccc(OC)cc2C=CC1C#N` (stereo not drawn) was tested, and the T/C (dose: 44.0 mg/kg/injection, schedule: Q01DX009 (ip), vehicle: saline with Tween-80) was 119 % of control, the T/C [3] was 105 % of control and the T/C (dose: 66.0 mg/kg/injection, schedule: Q01DX009 (ip), vehicle: saline with Tween-80) was 119 % of control. The T/C [6] was 109 % of control, the T/C (dose: 150.0 mg/kg/injection, schedule: Q01DX009 (ip), vehicle: saline with Tween-80) was 160 % of control and the T/C [5] was 108 % of control. The T/C [7] was 118 % of control, the T/C (dose: 266.0 mg/kg/injection, schedule: Q04DX003 (ip), vehicle: saline with Tween-80) was 124 % of control and the T/C [8] was 118 % of control. For the same compound, the T/C (dose: 800.0 mg/kg/injection, schedule: Q01DX009 (ip), vehicle: saline with Tween-80) was 96 % of control.
With `CC1(C)COC(c2ccccc2-c2ccccc2C2OCC(C)(C)CO2)OC1` the T/C [15] was 100 % of control, the T/C [16] was 99 % of control and the T/C [17] was 104 % of control.
For `CC(=O)O[C@@H]1C[C@H]2C(C)(C)C(=O)C=C[C@]2(C)[C@H]2CC[C@]3(C)C(=CC(=O)O[C@]3(O)c3ccoc3)[C@@]21C`, the T/C (dose: 1.0 mg/kg/injection, schedule: Q01DX005 (ip), vehicle: Klucel (hydroxypropylcellulose) (HPC)) was 95 % of control, the T/C (dose: 2.0 mg/kg/injection, schedule: Q01DX005 (ip), vehicle: Klucel (hydroxypropylcellulose) (HPC)) was 100 % of control and the T/C (dose: 4.0 mg/kg/injection, schedule: Q01DX005 (ip), vehicle: Klucel (hydroxypropylcellulose) (HPC)) was 95 % of control. The T/C (dose: 8.0 mg/kg/injection, schedule: Q01DX005 (ip), vehicle: Klucel (hydroxypropylcellulose) (HPC)) was 95 % of control.
`COC1(OC)CCN2OC(CO)CC21` (stereo not drawn) was tested, and the T/C (dose: 25.0 mg/kg/injection, schedule: Q04DX003 (ip), vehicle: saline with Tween-80) was 103 % of control, the T/C (dose: 50.0 mg/kg/injection, schedule: Q04DX003 (ip), vehicle: saline with Tween-80) was 100 % of control and the T/C [6] was 100 % of control and 101 % of control.
In the case of `CCCCCCC(/C=C/c1ccc(Cl)c(Cl)c1)=N\NC(N)=S`, the T/C (dose: 50.0 mg/kg/injection, schedule: Q01DX009 (ip), vehicle: saline) is reported as 105 % of control, the T/C (dose: 100.0 mg/kg/injection, schedule: Q01DX009 (ip), vehicle: saline) is reported as 106 % of control and the T/C (dose: 200.0 mg/kg/injection, schedule: Q01DX009 (ip), vehicle: saline) is reported as 107 % of control.
In the case of `COC1=CC(=O)C2CC=C(C)C3CC(=O)OC1C23C` (stereo not drawn), the T/C (dose: 100.0 mg/kg/injection, schedule: Q04DX002 (ip), vehicle: Klucel (hydroxypropylcellulose) (HPC)) is reported as 100 % of control, the T/C (dose: 200.0 mg/kg/injection, schedule: Q04DX002 (ip), vehicle: Klucel (hydroxypropylcellulose) (HPC)) is reported as 95 % of control and the T/C (dose: 400.0 mg/kg/injection, schedule: Q04DX002 (ip), vehicle: Klucel (hydroxypropylcellulose) (HPC)) is reported as 98 % of control.
In the case of `C1=C(c2ccccc2)C(c2ccc(OCCN3CCCCC3)cc2)Oc2ccccc21` (stereo not drawn), the T/C (dose: 50.0 mg/kg/injection, schedule: Q01DX005 (ip), vehicle: saline with Tween-80) is reported as 92 % of control and the T/C (dose: 100.0 mg/kg/injection, schedule: Q01DX005 (ip), vehicle: saline with Tween-80) is reported as 86 % of control.
`COc1cccc(CCNC(=O)CCN2C(=O)CCC2=O)c1` was tested, and the T/C [4] was 105 % of control, the T/C [5] was 100 % of control and the T/C [8] was 110 % of control.
In the case of `O=c1[nH]nc(NC2Nc3ccccc3N2)c2ccccc12`, the T/C [12] is reported as 97 % of control, the T/C [13] is reported as 96 % of control and the T/C [14] is reported as 96 % of control.
`COc1ccc(C2C3CCCC(C3=O)C(c3ccc(OC)cc3)N2C)cc1` (stereo not drawn) was tested, and the T/C [15] was 99 % of control, the T/C [16] was 97 % of control and the T/C [17] was 96 % of control.
With `CN(C)c1nc(NC(=O)NC(=O)c2c(F)cccc2F)nc(N(C)C)n1` the T/C (dose: 6.25 mg/kg/injection, schedule: Q01DX009 (ip), vehicle: saline with Tween-80) was 101 % of control, the T/C (dose: 12.5 mg/kg/injection, schedule: Q01DX009 (ip), vehicle: saline with Tween-80) was 111 % of control and the T/C (dose: 25.0 mg/kg/injection, schedule: Q01DX009 (ip), vehicle: saline with Tween-80) was 104 % of control.
`CS(=O)(=O)OCCCCCCCCCCCC1C=CCC1` (stereo not drawn) was tested, and the T/C [15] was 94 % of control, the T/C [16] was 93 % of control and the T/C [17] was 94 % of control.
